From patent US20250136594A1 (Tango Therapeutics, Inc., priority 2022, published 2025)

Tests used:
[1] = system: SDMA in HAP1 MTAP-deleted (MTAP-null) cell line (PRMT5 inhibition); experiment: SDMA in-cell western assay, HAP1 MTAP-deleted cell line; details: for IC50 / IC90: Homo sapiens; for IC50: HAP1, read-out: Hap1 MTAP deleted IC50; for IC90: HAP1, read-out: Hap1 MTAP deleted IC90; for Hap1 MTAP intact/deleted ratio: ratio of SDMA IC50 in HAP1 MTAP-intact to HAP1 MTAP-deleted cell line
[2] = system: SDMA in HAP1 MTAP-intact cell line (PRMT5 inhibition); experiment: SDMA in-cell western assay, HAP1 MTAP-intact cell line; details: Homo sapiens, HAP1, read-out: Hap1 MTAP intact IC50
[3] = system: HAP1 MTAP-deleted cell line; experiment: Viability assay, HAP1 MTAP-deleted cell line; format: cell-based; details: Homo sapiens; viability assay, HAP1 MTAP-deleted cell line; read-out: Hap1 MTAP deleted viability IC50

| SMILES | IC50 [1] [nM] | IC90 [1] [nM] | IC50 [2] [nM] | Hap1 MTAP intact/deleted ratio [1] | IC50 [3] [nM] |
| --- | --- | --- | --- | --- | --- |
| Nc1ncc(NC(=O)C(=O)N(Cc2ccc(C(F)(F)F)cn2)[C@@H]2CCC[C@H]2OC(F)F)cc1C1CC1 [Compound 4, N1-(6-amino-5-cyclopropylpyridin-3-yl)-N^2-((1R,2R)-2-(difluoromethoxy)cyclopentyl)-N^2-((5-(trifluoromethyl)pyridin-2-yl)methyl)oxalamide] | 5 to 50 | 75 to 125 | > 50 | A (IC50 ratio greater than or equal to 30 fold) | 100 to 1000 |
| Cc1ccccc1CN(C(=O)C(=O)Nc1cnc(N)c2cn[nH]c12)[C@@H](C)C(C)C [Compound 117, (S)—N^1-(4-amino-1H-pyrazolo[4,3-c]pyridin-7-yl)-N^2-(2-methylbenzyl)-N^2-(3-methylbutan-2-yl)oxalamide] | < 5 | 75 to 125 | > 50 | B (IC50 ratio greater than or equal to 15 fold but lower than 30 fold) | 100 to 1000 |
| Nc1ncc(NC(=O)C(=O)N(Cc2ccccc2)Cc2ccc(C(F)(F)F)cn2)c2[nH]ncc12 [Compound 108, N-(4-amino-1H-pyrazolo[4,3-c]pyridin-7-yl)-N′-benzyl-N′-[[5-(trifluoromethyl)-2-pyridyl]methyl]oxamide] | < 5 | < 75 | 5 to 50 | B (IC50 ratio greater than or equal to 15 fold but lower than 30 fold) | < 100 |

The next lines start with results.

| IC50 [1] [nM] | IC90 [1] [nM] | IC50 [2] [nM] | SMILES | Hap1 MTAP intact/deleted ratio [1] | IC50 [3] [nM] |
| --- | --- | --- | --- | --- | --- |
| < 5 | < 75 | 5 to 50 | Nc1ncc(NC(=O)C(=O)N(Cc2ccccn2)Cc2cccc3ccccc23)c2[nH]ncc12 [Compound 132, N-(4-amino-2H-pyrazolo[4,3-c]pyridin-7-yl)-N′-(1-naphthylmethyl)-N′-(2-pyridylmethyl)oxamide] | A (IC50 ratio greater than or equal to 30 fold) | < 100 |
| < 5 | < 75 | 5 to 50 | CC(c1ccccc1)N(Cc1ccccn1)C(=O)C(=O)Nc1cnc(N)c2cn[nH]c12 (stereo not shown) [Compound 174, N-(4-amino-1H-pyrazolo[4,3-c]pyridin-7-yl)-N′-(1-phenylethyl)-N′-(2-pyridylmethyl)oxamide] | B (IC50 ratio greater than or equal to 15 fold but lower than 30 fold) | < 100 |
